Measurements published in patent publication US9670203B2 (BeiGene, LTD., priority 2013, dated 2017).
Where two headings read alike, the source gives them in different places.

Legend:
Calu-6 (pERK) = assay: ERK phosphorylation inhibition IC50 assay in Calu-6; assay type: cell-based; conditions: Homo sapiens, 1 hour compound treatment
Procedure: (§1) Growth medium was then replaced with 100 μL of serum free DMEM, cells were then treated with a 10-point titration of compounds disclosed herein. After 1 hour compound treatment, 50 μL of lysis buffer (Cisbio) were added to each well and incubated at room temperature with shaking for 30 minutes. A total of 16 μL of cell lysate from each well of a 96-well plate was transferred to a 384-well small volume white plate. Lysate from each well was incubated with 2 μL of Eu^3+-cryptate (donor) labeled anti-ERK antibody (Cisbio) and 2 μL of D2 (acceptor) labeled anti-phospho-ERK antibody (Cisbio) for 2 hours at room temperature. When donor and acceptor are in close proximity, excitation of the donor with laser triggers a Fluorescence Resonance Energy Transfer (FRET) towards the acceptor, which in turn fluoresces at 655 nm wavelength. Fluorescence values were measured using a BMG reader.
(§2) IC50 values for ERK inhibition were calculated by fitting dose-dependent data to the four-parameter logistic model using GraphPad Prism software.

HeLa (pERK) = assay: ERK phosphorylation inhibition IC50 assay in HeLa; assay type: cell-based; conditions: Homo sapiens, 1 hour compound treatment
Procedure: as §1, §2

B-Raf (V600E) = B-Raf (V600E) (Homo sapiens (Human), UniProt P15056, V600E); assay: Raf IC50 assay, time-resolved fluorescence energy transfer, B-Raf (V600E); assay type: biochemical; conditions: 0.1 mM ATP; read-out: IC50 (nM) B_Raf^V600E
Procedure: The enzyme was incubated with the compounds at room temperature for 60 minutes and the reactions were initiated by the addition of ATP and GST-MEK1. After reaction at room temperature for 60 minutes, an equal volume of stop/detection solution was added according to the manufacture's instruction (CisBio Bioassays). […] The IC50 for each compound was derived from fitting the dose-response % inhibition data to the four-parameter logistic model by Graphpad Prism software.

C-Raf (Y340D/Y341D) = C-Raf (Y340D/Y341D) (Homo sapiens (Human), UniProt P04049, Y340D/Y341D); assay: Raf IC50 assay, time-resolved fluorescence energy transfer, C-Raf (Y340D/Y341D); assay type: biochemical; conditions: 0.1 mM ATP
Procedure: The assay was carried out in reactions (10 μL) containing 0.0625 nM B-Raf or 0.5 nM C-Raf, 25 mM Tris pH7.4, 10 mM MgCl2, 0.5 mM EGTA, 0.5 mM Na3VO4, 5 mM beta-glycerophosphate, 0.01% Triton X-100, 2.5 mM DTT, 0.1% BSA, 0.1 mM ATP, 13.7 nM GST-tagged MEK1 (Full-length protein with K97R mutation, recombinant protein purified from bacterial expression system) and 0-5 μM compounds disclosed herein (final concentration of 1% DMSO). The enzyme was incubated with the compounds at room temperature for 60 minutes and the reactions were initiated by the addition of ATP and GST-MEK1. After reaction at room temperature for 60 minutes, an equal volume of stop/detection solution was added according to the manufacture's instruction (CisBio Bioassays). The stop/detection solution contained Eu^3+ cryptate-conjugated anti-phospho MEK1/2 (Ser217/221) rabbit polyclonal antibody and d2-conjugated anti-GST mouse monoclonal antibody in buffer containing 25 mM Tris pH7.4, 400 mM KF, 50 mM EDTA, 0.01% BSA and 0.01% Triton X-100. Plates were sealed and incubated at room temperature for 2 hours, and the TR-FRET signals (ratio of fluorescence emission at 665 nm over emission at 620 nm with excitation at 337 nm wavelength) were recorded on a PHERAstar FS plate reader (BMG Labtech). Phosphorylation of MEK1 led to the binding of anti-phospho-MEK1/2 antibody to GST-MEK1 protein that place fluorescent donor (Eu^3+ crypate) in close proximity to the accepter d2 on the anti-GST antibody, thus resulting in a high degree of fluorescence resonance energy transfer from the donor fluorophore (at 620 nm) to the acceptor fluorophore (at 665 nm). […] The IC50 for each compound was derived from fitting the dose-response % inhibition data to the four-parameter logistic model by Graphpad Prism software.

wild type B-Raf = wild type B-Raf (Homo sapiens (Human), UniProt P15056); assay: WT B-Raf IC50 assay, time-resolved fluorescence energy transfer; assay type: biochemical
Procedure: The IC50 for each compound was calculated by non linear regression by Graphpad Prism software.

p61-A375 = assay: Anti-proliferative activity EC50 assay (CellTiter-Glo) in p61-A375; assay type: cell-based; conditions: 72 h; 3-day exposure; read-out: Cell Proliferation EC50 (nM) p61-A375
Procedure: (§3) To express p61 in mammalian cells, cDNA encoding the p61 (Poulikakos et al., Nature. 2011 Nov. 23; 480(7377):387-90) was synthesized by Genscript and cloned into pLVX-IRES-Puro vector (Clontech). The cDNA was a modified form of p61 in which sequencing encoding the flag-epitope had been inserted to the C-terminus, resulting in the expression of flag-tagged forms of protein. A375 cells were stably transfected with the Flag-p61 expressing plasmid and selected with DMEM containing […] puromycin (Invitrogen). Cells were cloned by limiting dilution in a 96-wells plate and the clones screened by western blot analysis using a monoclonal antibody directed against the flag-epitope.
The growth-inhibitory activity of compounds in A375 and p61-A375, was determined using CellTiter-Glo luminescent cell viability assay (Promega). The 2,000 cells were seeded per well of a 96-well plate to ensure logarithmic growth could occur over the 3 days treatment period. Cells were left to attach for 16 hours, cells were treated in duplicate with a 10-point dilution series. Following a 3-day exposure to compounds disclosed herein, a volume of CellTiter-Glo reagent equal to the volume of cell culture medium present in each well was added. Mixture was mixed on an orbital shaker for 2 minutes to allow cell lysis, followed by 10 minutes incubation at room temperature to allow stabilization of luminescent signal, which corresponded to quantitation of ATP and thus the quantitation of metabolically active cells. Luminescent signal was measured using Pherastar FS reader (BMG Labtech).
EC50 values for growth inhibition were calculated by fitting dose-dependent data to the four-parameter logistic model using GraphPad Prism software.

p61-A375 (pERK) = assay: ERK phosphorylation inhibition IC50 assay in p61-A375; assay type: cell-based; conditions: 1 hour compound treatment
Procedure: as §3, §1, §2

A375 = assay: Anti-proliferative activity EC50 assay (CellTiter-Glo) in A375; assay type: cell-based; conditions: Homo sapiens, A-375, 72 h; 3-day exposure; read-out: Cell Proliferation EC50 (nM) A375
Method in brief: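 CellTiter-Glo luminescence (ATP) after 2,000 cells/well attached 16 h, then 3-day exposure to a 10-point dilution series in duplicate. EC50 from four-parameter logistic fit of dose-response data.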

[1] = 2.5 mM ATP, read-out: IC50 (nM) B-Raf^WT 2.5 mM ATP
[2] = Km ATP (2.9 μM ATP), read-out: IC50 (nM) B-Raf^WT Km ATP

Sequence of B-Raf (V600E) (P15056 whole entry V600E): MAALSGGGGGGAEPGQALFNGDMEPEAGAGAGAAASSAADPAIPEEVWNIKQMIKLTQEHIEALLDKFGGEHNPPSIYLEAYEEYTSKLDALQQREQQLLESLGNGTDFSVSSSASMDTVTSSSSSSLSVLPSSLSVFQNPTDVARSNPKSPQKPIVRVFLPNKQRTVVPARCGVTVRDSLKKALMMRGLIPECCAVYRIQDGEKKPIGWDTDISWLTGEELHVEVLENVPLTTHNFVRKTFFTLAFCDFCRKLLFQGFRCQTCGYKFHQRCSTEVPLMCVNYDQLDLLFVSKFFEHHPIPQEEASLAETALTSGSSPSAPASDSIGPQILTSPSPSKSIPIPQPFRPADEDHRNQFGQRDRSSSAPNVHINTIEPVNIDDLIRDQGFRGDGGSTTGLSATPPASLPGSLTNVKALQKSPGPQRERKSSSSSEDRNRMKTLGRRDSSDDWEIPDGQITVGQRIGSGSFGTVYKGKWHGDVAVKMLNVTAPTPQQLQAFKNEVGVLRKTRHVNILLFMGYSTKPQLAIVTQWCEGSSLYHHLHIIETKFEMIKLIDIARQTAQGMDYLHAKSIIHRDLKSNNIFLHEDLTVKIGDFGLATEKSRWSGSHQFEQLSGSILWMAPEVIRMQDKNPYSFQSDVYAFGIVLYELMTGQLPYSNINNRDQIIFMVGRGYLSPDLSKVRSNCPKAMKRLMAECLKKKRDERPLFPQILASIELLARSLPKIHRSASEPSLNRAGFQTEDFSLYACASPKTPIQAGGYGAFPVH
Sequence of C-Raf (Y340D/Y341D) (P04049 whole entry Y340D/Y341D): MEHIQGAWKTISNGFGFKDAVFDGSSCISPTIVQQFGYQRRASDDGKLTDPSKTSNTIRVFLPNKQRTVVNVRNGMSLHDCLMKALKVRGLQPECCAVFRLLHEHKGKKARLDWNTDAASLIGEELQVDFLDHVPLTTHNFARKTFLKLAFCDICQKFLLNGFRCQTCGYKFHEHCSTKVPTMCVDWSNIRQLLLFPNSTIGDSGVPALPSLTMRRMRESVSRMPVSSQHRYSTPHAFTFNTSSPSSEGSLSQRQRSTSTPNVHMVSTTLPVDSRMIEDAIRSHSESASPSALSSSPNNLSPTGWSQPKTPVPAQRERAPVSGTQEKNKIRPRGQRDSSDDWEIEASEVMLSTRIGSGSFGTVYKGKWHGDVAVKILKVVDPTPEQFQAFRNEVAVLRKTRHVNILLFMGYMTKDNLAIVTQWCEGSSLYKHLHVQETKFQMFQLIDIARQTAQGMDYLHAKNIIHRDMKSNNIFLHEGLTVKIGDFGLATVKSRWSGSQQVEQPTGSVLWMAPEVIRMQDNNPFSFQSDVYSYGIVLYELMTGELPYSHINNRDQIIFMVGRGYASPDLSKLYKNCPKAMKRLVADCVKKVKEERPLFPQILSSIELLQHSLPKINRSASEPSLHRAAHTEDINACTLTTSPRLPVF
Sequence of wild type B-Raf (P15056 whole entry): as the sequence (P15056 whole entry V600E) above, with E600V counted along it

SMILES	IC50 (Calu-6 (pERK)) [nM]	IC50 (HeLa (pERK)) [nM]	IC50 (B-Raf (V600E)) [nM]	IC50 (C-Raf (Y340D/Y341D)) [nM]	IC50 (wild type B-Raf; [1]) [nM]	IC50 (wild type B-Raf; [2]) [nM]	EC50 (p61-A375) [nM]	IC50 (p61-A375 (pERK)) [nM]	EC50 (A375) [nM]
O=C1CCc2c(Oc3ccc4c(c3)[C@H]3[C@H](NC(=O)Nc5cc(F)cc(F)c5)[C@H]3O4)ccnc2N1 [Compound 1.23]	101	189	1.8	0.3	12	3.7	479	253	109
O=C1CCc2c(Oc3ccc4c(c3)[C@H]3[C@H](NC(=O)Nc5ccc(F)c(C(F)(F)F)c5)[C@H]3O4)ccnc2N1 [Compound 1.32]	301	536	7.7	1.2	58	17	527	433	55
O=C1CCc2c(Oc3ccc4c(c3)[C@H]3[C@H](NC(=O)Nc5ccc(F)cc5F)[C@H]3O4)ccnc2N1 [Compound 1.35]	75	610	0.59	0.25	4.1	1	1130	314	143
O=C1CCc2c(Oc3ccc4c(c3)[C@H]3[C@H](NC(=O)Nc5ccc(F)c(F)c5)[C@H]3O4)ccnc2N1 [Compound 1.45]	84	265	1.1	0.3	6.7	2.7	645	325	32
O=C1CCc2c(Oc3ccc4c(c3)[C@H]3[C@H](NC(=O)Nc5cc(F)c(F)cc5F)[C@H]3O4)ccnc2N1 [Compound 1.49]	112	498	1.2	0.19	7.9	2.5	639	153	17
O=C1CCc2c(Oc3ccc4c(c3)[C@H]3[C@H](NC(=O)NC5CCCCCC5)[C@H]3O4)ccnc2N1 [Compound 1.52]	411	5430	1.4	0.25		1.7		173	47.7
O=C1CCc2c(Oc3ccc4c(c3)[C@H]3[C@H](NC(=O)Nc5cc(F)cc(F)c5F)[C@H]3O4)ccnc2N1 [Compound 1.53]			2.9				1320		77
CCCS(=O)(=O)Nc1ccc(F)c(C(=O)c2c[nH]c3ncc(-c4ccc(Cl)cc4)cc23)c1F [Vemurafenib, reference compound]	> 10000	5820					> 10000	> 10000	178
